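1) Cells in 96-well plates. 2) Compound, 48 h, 5 concentrations. 3) Linear interpolation between surrounding doses. 4) Unreached endpoint = highest concentration. GI50 marks 50% less growth. TGI: total growth inhibition.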
Tests used:
Assay in all cases: growth of human tumour cells (NCI), 48 h
786-0 renal = tested on: 786-0 renal
A498 renal = tested on: A498 renal
A549 NSCLC = tested on: A549 NSCLC
ACHN renal = tested on: ACHN renal
CAKI-1 renal = tested on: CAKI-1 renal
DU-145 prostate = tested on: DU-145 prostate
HCT-116 colon = tested on: HCT-116 colon
HCT-15 colon = tested on: HCT-15 colon
HL-60(TB) leukemia = tested on: HL-60(TB) leukemia
HOP-62 NSCLC = tested on: HOP-62 NSCLC
HOP-92 NSCLC = tested on: HOP-92 NSCLC
HT29 colon = tested on: HT29 colon
IGROV1 ovarian = tested on: IGROV1 ovarian
K-562 leukemia = tested on: K-562 leukemia
KM12 colon = tested on: KM12 colon
LOX IMVI melanoma = tested on: LOX IMVI melanoma
M14 melanoma = tested on: M14 melanoma
MCF7 breast = tested on: MCF7 breast
MDA-MB-231 breast = tested on: MDA-MB-231 breast
MOLT-4 leukemia = tested on: MOLT-4 leukemia
NCI-H226 lung = tested on: NCI-H226 lung
NCI-H23 lung = tested on: NCI-H23 lung
NCI-H460 lung = tested on: NCI-H460 lung
NCI-H522 lung = tested on: NCI-H522 lung
NCI/ADR-RES ovarian = tested on: NCI/ADR-RES ovarian
OVCAR-3 ovarian = tested on: OVCAR-3 ovarian
OVCAR-4 ovarian = tested on: OVCAR-4 ovarian
OVCAR-5 ovarian = tested on: OVCAR-5 ovarian
OVCAR-8 ovarian = tested on: OVCAR-8 ovarian
PC-3 prostate = tested on: PC-3 prostate
RPMI-8226 leukemia = tested on: RPMI-8226 leukemia
SF-268 CNS = tested on: SF-268 CNS
SF-295 CNS = tested on: SF-295 CNS
SF-539 CNS = tested on: SF-539 CNS
SK-MEL-2 melanoma = tested on: SK-MEL-2 melanoma
SK-MEL-28 melanoma = tested on: SK-MEL-28 melanoma
SK-MEL-5 melanoma = tested on: SK-MEL-5 melanoma
SK-OV-3 ovarian = tested on: SK-OV-3 ovarian
SN12C renal = tested on: SN12C renal
SNB-75 CNS = tested on: SNB-75 CNS
SW-620 colon = tested on: SW-620 colon
TK-10 renal = tested on: TK-10 renal
U251 CNS = tested on: U251 CNS
UACC-257 melanoma = tested on: UACC-257 melanoma
UACC-62 melanoma = tested on: UACC-62 melanoma
UO-31 renal = tested on: UO-31 renal
CCRF-CEM leukemia = tested on: CCRF-CEM leukemia
SR leukemia = tested on: SR leukemia

Structure (SMILES): CCN1/C(=C/C(C)=C/c2sc3ccc4ccccc4c3[n+]2CC)Sc2ccc3ccccc3c21
- GI50 (786-0 renal): 268 nM
- TGI (786-0 renal): 1090 nM
- GI50 (A498 renal): 181 nM
- TGI (A498 renal): 759 nM
- GI50 (A549 NSCLC): 27.1 nM
- TGI (A549 NSCLC): 272 nM
- GI50 (ACHN renal): 147 nM
- TGI (ACHN renal): 614 nM
- GI50 (CAKI-1 renal): 264 nM
- TGI (CAKI-1 renal): 1150 nM
- GI50 (DU-145 prostate): 142 nM
- TGI (DU-145 prostate): 631 nM
- GI50 (HCT-116 colon): 127 nM
- TGI (HCT-116 colon): 293 nM
- GI50 (HCT-15 colon): 219 nM
- TGI (HCT-15 colon): 744 nM
- GI50 (HL-60(TB) leukemia): 106 nM
- TGI (HL-60(TB) leukemia): 2680 nM
- GI50 (HOP-62 NSCLC): 192 nM
- TGI (HOP-62 NSCLC): 470 nM
- GI50 (HOP-92 NSCLC): 163 nM
- TGI (HOP-92 NSCLC): 612 nM
- GI50 (HT29 colon): 109 nM
- TGI (HT29 colon): 233 nM
- GI50 (IGROV1 ovarian): 146 nM
- TGI (IGROV1 ovarian): 404 nM
- GI50 (K-562 leukemia): 1030 nM
- TGI (K-562 leukemia): 18400 nM
- GI50 (KM12 colon): 136 nM
- TGI (KM12 colon): 276 nM
- GI50 (LOX IMVI melanoma): 183 nM
- TGI (LOX IMVI melanoma): 465 nM
- GI50 (M14 melanoma): 196 nM
- TGI (M14 melanoma): 580 nM
- GI50 (MCF7 breast): 149 nM
- TGI (MCF7 breast): 420 nM
- GI50 (MDA-MB-231 breast): 271 nM
- TGI (MDA-MB-231 breast): 1040 nM
- GI50 (MOLT-4 leukemia): 164 nM
- TGI (MOLT-4 leukemia): 2150 nM
- GI50 (NCI-H226 lung): 225 nM
- TGI (NCI-H226 lung): 1270 nM
- GI50 (NCI-H23 lung): 108 nM
- TGI (NCI-H23 lung): 1190 nM
- GI50 (NCI-H460 lung): 121 nM
- TGI (NCI-H460 lung): 329 nM
- GI50 (NCI-H522 lung): 121 nM
- TGI (NCI-H522 lung): 528 nM
- GI50 (NCI/ADR-RES ovarian): 964 nM
- TGI (NCI/ADR-RES ovarian): 5610 nM
- GI50 (OVCAR-3 ovarian): 148 nM
- TGI (OVCAR-3 ovarian): 317 nM
- GI50 (OVCAR-4 ovarian): 138 nM
- TGI (OVCAR-4 ovarian): 1260 nM
- GI50 (OVCAR-5 ovarian): 486 nM
- TGI (OVCAR-5 ovarian): 1930 nM
- GI50 (OVCAR-8 ovarian): 67 nM
- TGI (OVCAR-8 ovarian): 830 nM
- GI50 (PC-3 prostate): 85 nM
- TGI (PC-3 prostate): 1460 nM
- GI50 (RPMI-8226 leukemia): < 13.4 nM
- TGI (RPMI-8226 leukemia): 131 nM
- GI50 (SF-268 CNS): 198 nM
- TGI (SF-268 CNS): 678 nM
- GI50 (SF-295 CNS): 121 nM
- TGI (SF-295 CNS): 674 nM
- GI50 (SF-539 CNS): 227 nM
- TGI (SF-539 CNS): 1010 nM
- GI50 (SK-MEL-2 melanoma): 193 nM
- TGI (SK-MEL-2 melanoma): 586 nM
- GI50 (SK-MEL-28 melanoma): 165 nM
- TGI (SK-MEL-28 melanoma): 329 nM
- GI50 (SK-MEL-5 melanoma): 123 nM
- TGI (SK-MEL-5 melanoma): 352 nM
- GI50 (SK-OV-3 ovarian): 236 nM
- TGI (SK-OV-3 ovarian): 780 nM
- GI50 (SN12C renal): 189 nM
- TGI (SN12C renal): 1050 nM
- GI50 (SNB-75 CNS): 205 nM
- TGI (SNB-75 CNS): 761 nM
- GI50 (SW-620 colon): 114 nM
- TGI (SW-620 colon): 277 nM
- GI50 (TK-10 renal): 217 nM
- TGI (TK-10 renal): 997 nM
- GI50 (U251 CNS): 108 nM
- TGI (U251 CNS): 336 nM
- GI50 (UACC-257 melanoma): 11.5 nM
- TGI (UACC-257 melanoma): 91.6 nM
- GI50 (UACC-62 melanoma): 310 nM
- TGI (UACC-62 melanoma): 1800 nM
- GI50 (UO-31 renal): 181 nM
- TGI (UO-31 renal): 571 nM

Structure (SMILES): CCCc1cn2c(/C=N/N=C(N)N)c(-c3cc([N+](=O)[O-])c(Cl)cc3Cl)nc2s1
- TGI (A498 renal): 2880 nM
- TGI (ACHN renal): 3160 nM
- TGI (CCRF-CEM leukemia): 860 nM
- TGI (DU-145 prostate): 3530 nM
- TGI (HCT-15 colon): 3020 nM
- TGI (HT29 colon): 2460 nM
- TGI (K-562 leukemia): 2490 nM
- TGI (MOLT-4 leukemia): 873 nM
- TGI (NCI/ADR-RES ovarian): 4310 nM
- TGI (OVCAR-4 ovarian): 2830 nM
- TGI (OVCAR-5 ovarian): 3120 nM
- TGI (SN12C renal): 3160 nM
- TGI (SNB-75 CNS): 3070 nM
- TGI (SR leukemia): 2920 nM
- TGI (SW-620 colon): 2970 nM
- TGI (TK-10 renal): 2330 nM
- TGI (UACC-62 melanoma): 3150 nM

From PubChem BioAssay (NCI)
